Experimental findings from paper PMC10781750, “Structural basis of antiphage immunity generated by a prokaryotic Argonaute-associated SPARSA system” (Nature Communications, 2024) are described below.

The target of experiment [1] is T1, SPARSA (GsSir2/pAgo heterodimer) (Geobacter sulfurreducens, UniProt Q74DF6).
T1 construct: gene GSU1360; full-length GsSir2 and pAgo coexpressed in E. coli BL21(DE3); 6xHis-SPARSA (also His-SUMO version, SUMO cut by TEV); 1:1 heterodimer; with Short prokaryotic Argonaute (Piwi domain-containing protein)
The experiment in a line: NADase assay, residual NAD+ by NAD/NADH quantitation kit (absorbance […] nm). It counts as biochemical. The settings on record: 1 uM SPARSA, 10 uM NAD+, 2 uM gRNA and tDNA (required for activity), 10 mM HEPES pH 7.5, 125 mM KCl, 37 C.

In experiment [2] the target is T1, SPARSA (GsSir2/pAgo heterodimer). As to the kind of experiment: cryo-EM structures ([…] A without, […] A with gRNA/tDNA). It counts as binding. The settings on record: endogenous NAD+ copurified; bound in Sir2 domain cleft between Rossmann fold and small domain, near N142 and H186; seen without and with gRNA/tDNA.

T1 sequence (Q74DF6 1-587): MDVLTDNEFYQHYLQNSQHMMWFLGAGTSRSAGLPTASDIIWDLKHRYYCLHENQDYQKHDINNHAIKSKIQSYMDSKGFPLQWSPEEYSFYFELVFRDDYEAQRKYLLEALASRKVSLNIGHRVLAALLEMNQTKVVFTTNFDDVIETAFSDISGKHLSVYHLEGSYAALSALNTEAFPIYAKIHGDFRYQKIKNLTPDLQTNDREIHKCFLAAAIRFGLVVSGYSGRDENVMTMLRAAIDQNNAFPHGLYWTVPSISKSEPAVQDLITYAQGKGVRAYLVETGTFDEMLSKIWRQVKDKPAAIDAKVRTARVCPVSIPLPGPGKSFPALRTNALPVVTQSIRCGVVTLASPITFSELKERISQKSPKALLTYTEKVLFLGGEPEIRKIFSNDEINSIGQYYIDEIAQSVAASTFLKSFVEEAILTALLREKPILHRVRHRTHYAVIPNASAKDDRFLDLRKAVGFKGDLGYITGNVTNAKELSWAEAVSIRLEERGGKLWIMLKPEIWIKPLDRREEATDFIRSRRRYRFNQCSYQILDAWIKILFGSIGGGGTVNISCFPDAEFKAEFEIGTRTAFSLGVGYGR
T1 sequence (Q74DF5 1-473 partner): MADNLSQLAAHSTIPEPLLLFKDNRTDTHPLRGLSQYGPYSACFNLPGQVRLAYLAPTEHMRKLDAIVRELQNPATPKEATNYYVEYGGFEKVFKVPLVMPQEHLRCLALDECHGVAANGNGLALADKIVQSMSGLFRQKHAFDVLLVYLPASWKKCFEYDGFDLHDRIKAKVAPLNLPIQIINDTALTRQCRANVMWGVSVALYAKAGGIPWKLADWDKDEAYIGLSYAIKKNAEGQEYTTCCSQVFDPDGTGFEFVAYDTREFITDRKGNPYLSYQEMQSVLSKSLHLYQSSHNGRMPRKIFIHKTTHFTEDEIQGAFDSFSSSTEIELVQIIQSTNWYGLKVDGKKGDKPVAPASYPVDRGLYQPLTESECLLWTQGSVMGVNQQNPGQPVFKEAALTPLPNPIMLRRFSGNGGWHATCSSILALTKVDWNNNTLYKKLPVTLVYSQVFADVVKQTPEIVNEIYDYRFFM

With `NC(=O)c1ccc[n+]([C@@H]2O[C@H](COP(=O)([O-])OP(=O)(O)OC[C@H]3O[C@@H](n4cnc5c(N)ncnc54)[C@H](O)[C@@H]3O)[C@@H](O)[C@H]2O)c1` [NAD^+], the “NADase assay, residual NAD+ by NAD/NADH quantitation kit (absorbance 450 nm)” value in experiment [1] is “nearly no NAD^+ remained in the wild-type SPARSA”. In addition, the “cryo-EM structures (3.6 A without, 3.1 A with gRNA/tDNA)” value in experiment [2] was “a density within the crevice near the catalytic residues N142 and H186 was observed”.
